By IC50 is commonly meant the concentration at which inhibition is half-maximal. Lower therefore signals greater potency in that assay. For orientation: inhibition means the share of the control response that was lost under treatment.

Results on 3 compounds are retold here after patent US12617771B2, “Diphenylpyrazole compound, and preparation method therefor and application thereof” (NORTHWEST A&F UNIVERSITY, priority 2021, dated 2026).

Several values for one entry are separate records, joined by “and”; a condition that tells them apart may be missing. Identical values can stand only once.

Holding throughout (format): biochemical
Test [1] deals with Carposina sasakii GSTs. In words: Inhibition of total GSTs enzyme of Carposina sasakii (CDNB method). As to the method: (§1) Experiment: About 50 mg of larvae/nymphs of nine major pests such as Plutella xylostella, Mythimna separata, Pyrausta nubilalis, Chilo suppressalis, Nilaparvata lugens, Spodoptera frugiperda, Helicoverpa armigera, Carposina sasakii, Spodoptera litura were taken, grounded in a mortar pre-cooled at −80° C., and then 1 mL of 100 mM sodium phosphate buffer (1 mM EDTA, pH 7.2) was added and fully homogenized. The homogenate was transferred to a 1.5 mL centrifuge tube at 4° C., and centrifuged at 14,000 g for 30 minutes, and the supernatant was transferred to a new centrifuge tube as the GSTs total enzyme. The protein concentrations of the above total enzymes were determined using the BCA method.
(§2) 100 μL of PBS buffer (100 mM, pH 7.2) containing 1 mM GSH was taken and placed in a 96-well plate, 5 μg of insect total GSTs enzymes and an appropriate concentration of compounds PXG1-PXG29 (29 compounds) of the present invention were added to each well, after uniformly mixing, and allowed to stand at 30° C. for 10 min. Then 100 μL of PBS buffer (100 mM, pH 7.2) containing 1 mM CDNB was added to each well. Immediately after mixing, the mixture was placed in a microplate reader to measure the absorbance at a wavelength of 340 nm (A 340) once every 1 min, the measurement was carried out continuously for 5 min, the light absorption values of each measuring point were recorded and the inhibition rate in vitro of the compounds with different concentrations against insects total GSTs enzymes were calculated. Each group of assays was repeated three times, and total GSTs enzymes inactivated at 100° C. for 5 min were used as negative controls, and GTX was used as positive controls. GraphPad Prism 5 software was used for analysis and calculation of IC50. Relative inhibition was calculated using the following formula:
(§3) [formula] • wherein, A340 is the change of A340 within 5 minutes for the control group, and A340t is the change of A340 within 5 minutes for the experimental group.

For test [2], the target named is Spodoptera frugiperda GSTs. The test is described as follows: Inhibition of total GSTs enzyme of Spodoptera frugiperda (CDNB method). How it is done: as §1, §2, §3
Test [3] has as its target Chilo suppressalis GSTs. The test is described as follows: Inhibition of total GSTs enzyme of Chilo suppressalis (CDNB method). How it is done:
as §1, §2, §3

For test [4], the target named is Plutella xylostella GSTs. In words: Inhibition of total GSTs enzyme of Plutella xylostella (CDNB method). How it is done:
as §1, §2, §3

The target of test [5] is PxGSTδ1 (Plutella xylostella, UniProt D7URW9). The test is described as follows: Inhibition of PxGSTδ1 recombinant protein. The note with it: read-out: 100 μM Inhibition rate %. As to the method:
(§4) Experiment: 100 μL of PBS buffer (100 mM, pH 7.2) was taken and added to a 96-well plate, 1 μg of PxGSTs recombinant protein and an appropriate concentration of the compounds PXG1-PXG29 of the present invention were added to each well, after uniformly mixing, and allowed to stand at 30° C. for 10 min. Then 100 μL of PBS buffer (100 mM, pH 7.2) containing 1 mM CDNB and 1 mM GSH was successively added to each well. Immediately after mixing, the mixture was placed in a microplate reader to measure the absorbance at a wavelength of 340 nm (A340) once every 1 min, the measurement was continued for 5 min, the light absorption values of each measuring point were recorded and the inhibition rate in vitro of the compounds PXG1-PXG29 of the present invention with different concentrations against PxGSTs recombinant protein were calculated. Each group of assays was repeated three times, and PxGSTs recombinant protein inactivated at 100° C. for 5 min was used as negative control, and GTX was used as positive control. GraphPad Prism 5 software was used for analysis and calculation of IC50. Relative inhibition was calculated using the following formula:
(§5) [formula] • wherein, A340c is the change of A340 […] the control group, an A340t is the change of A340 within 5 minutes for the experimental group.

Test [6] addresses PxGSTσ2 (Plutella xylostella, UniProt Q6F443). In words: Inhibition of PxGSTσ2 recombinant protein. The note with it: read-out: 100 μM Inhibition rate %. As to the method: as §4, §5
For test [7], the target named is Pyrausta nubilalis GSTs. In words: Inhibition of total GSTs enzyme of Pyrausta nubilalis (CDNB method). How it is done: as §1, §2, §3
The target in test [8] is Helicoverpa armigera GSTs. The test is described as follows: Inhibition of total GSTs enzyme of Helicoverpa armigera (CDNB method). As to the method:
as §1, §2, §3

Test [9] addresses PxGSTε3 (Plutella xylostella, UniProt O77409). The test is described as follows: Inhibition of PxGSTε3 recombinant protein. The note with it: read-out: 100 μM Inhibition rate %. How it is done:
as §4, §5

Test [10] concerns the target Spodoptera litura GSTs. The test is described as follows: Inhibition of total GSTs enzyme of Spodoptera litura (CDNB method). How it is done:
as §1, §2, §3

Test [11] concerns the target Nilaparvata lugens GSTs. In words: Inhibition of total GSTs enzyme of Nilaparvata lugens (CDNB method). As to the method: as §1, §2, §3
For test [12], the target named is Mythimna separata GSTs. The test is described as follows: Inhibition of total GSTs enzyme of Mythimna separata (CDNB method). How it is done: as §1, §2, §3
Test [13] deals with PxGSTσ1 (Plutella xylostella, UniProt Q6F436). In words: Inhibition of PxGSTσ1 recombinant protein. The note with it: read-out: 100 μM Inhibition rate %. How it is done:
as §4, §5

Chain of PxGSTε3 (O77409 entry or part of it): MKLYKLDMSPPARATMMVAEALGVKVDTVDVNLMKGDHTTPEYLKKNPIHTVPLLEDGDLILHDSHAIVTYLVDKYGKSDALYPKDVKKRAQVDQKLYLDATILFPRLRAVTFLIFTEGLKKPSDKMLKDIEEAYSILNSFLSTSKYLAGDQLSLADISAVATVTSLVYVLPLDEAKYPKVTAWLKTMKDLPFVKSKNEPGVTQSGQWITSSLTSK
Chain of PxGSTδ1 (D7URW9 entry or part of it): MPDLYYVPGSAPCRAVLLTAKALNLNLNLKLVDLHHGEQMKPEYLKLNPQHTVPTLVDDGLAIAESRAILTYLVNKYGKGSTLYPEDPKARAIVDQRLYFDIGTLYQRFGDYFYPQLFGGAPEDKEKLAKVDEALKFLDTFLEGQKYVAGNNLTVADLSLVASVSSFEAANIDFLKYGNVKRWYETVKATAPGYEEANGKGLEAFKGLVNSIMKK
Chain of PxGSTσ1 (Q6F436 entry or part of it): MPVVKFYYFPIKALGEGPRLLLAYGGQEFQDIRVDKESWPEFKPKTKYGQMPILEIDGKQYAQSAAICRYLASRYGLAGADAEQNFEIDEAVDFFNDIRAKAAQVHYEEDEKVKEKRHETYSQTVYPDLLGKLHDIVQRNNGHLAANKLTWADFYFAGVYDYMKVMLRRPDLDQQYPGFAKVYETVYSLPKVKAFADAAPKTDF
Chain of PxGSTσ2 (Q6F443 entry or part of it): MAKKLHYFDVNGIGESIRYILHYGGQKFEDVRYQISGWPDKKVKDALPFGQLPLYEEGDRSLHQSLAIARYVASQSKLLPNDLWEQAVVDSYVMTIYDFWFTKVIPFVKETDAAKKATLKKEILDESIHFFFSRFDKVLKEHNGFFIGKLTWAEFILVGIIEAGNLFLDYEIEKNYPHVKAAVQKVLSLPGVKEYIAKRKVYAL

`COc1ccccc1CC(=O)NNC(=O)c1cc(-c2ccccc2)nn1-c1ccccc1` [PXG10, N′-(1,3-diphenyl-1H-pyrazol-5-yl-carbonyl)-2-(2-methoxyphenyl) acetohydrazide]: the IC50 in test [1], in test [2], in test [3], in test [4], in test [7] and in [8] was greater than 100 µM each time. Further, the IC50 in test [10], in test [11] and in [12] was greater than 100 µM throughout. The “100 μM Inhibition rate %” value in test [1] is recorded as 32.54%; in test [2], 20.93%; in test [3] it was 5.85%; in test [4], −17.71%; in test [7], −3.85%; in [8], 9.75%. Further, the “100 μM Inhibition rate %” value in [10] was 3.87%; in test [11] it was 19.24%; in test [12], −2.50%. Besides, the inhibition at 100 µM in test [5] amounted to 91%; in [6], 19.2%; in test [9], 2.03%; in test [13] it was 29.4%.

With `CCCCCCSC[C@H](NC(=O)CC[C@H](N)C(=O)O)C(=O)NCC(=O)O` [GTX, S-Hexylglutathione, reference compound], the IC50 was 6.87 µM in test [1]; 12.9 µM in test [4]; 23.5 µM in [7]; 14.4 µM and 14.1 µM in [8]; 15.2 µM in test [10]; 16.3 µM in [12]. For the same compound, the “100 μM Inhibition rate %” value amounted to 95.39% in [1]; 95.20% in [2]; 99.97% in test [3]; 73.72% in [4]; 86.35% in test [7]; 96.30% in test [8]. Also, the “100 μM Inhibition rate %” value in test [10] is reported as 85.61%; in test [11], 95.14%; in test [12], 87.20%. Further, the inhibition at 100 µM came to 66.5% in [5], 84.8% in [6], 50.7% in test [9] and 67.3% in test [13].

With `O=C(NN1C(=O)NC2(CCCCC2)C1=O)c1cc(-c2ccccc2)nn1-c1ccccc1` [PXG6], the IC50 in test [1], in test [2], in test [3], in test [4], in test [7] and in test [8] was greater than 100 µM each time. Besides, the IC50 in [10], in test [11] and in test [12] was greater than 100 µM throughout. Besides, the “100 μM Inhibition rate %” value in test [1] came to 18.21%; in [2], 11.37%; in test [3], 15.98%; in test [4], 21.15%; in test [7], 13.70%; in [8] it was 23.21%. The “100 μM Inhibition rate %” value in test [10] is listed as 6.90%; in [11], −1.46%; in [12], 38.85%. In addition, the inhibition at 100 µM in [5] came to 12.2%; in test [6], 33.6%; in test [9] it was 4.85%; in test [13], 49.1%.
